Results published in patent US9914869B2, “System and method for inhibiting scale formation in oil wells” (GLOBAL GREEN PRODUCTS LLC, priority 2012, dated 2018).

Assay: Scale inhibitor comparison: static bottle test (barium sulfate) and dynamic tube block test (calcium carbonate)
Settings: barium sulfate / calcium carbonate scale inhibition; table does not say which scale
Text: These types of chemistries may be used as a comparison when evaluating one or more new scale inhibitors, such as the various aspartic acid based polymers.

Compound	Approximate effective Concentration [ppm]
O=P(O)(O)CN(CCCCCCN(CP(=O)(O)O)CP(=O)(O)O)CCCCCCN(CP(=O)(O)O)CP(=O)(O)O [BHMT Phosphonate]	2
diethylenetriamine (DETA) phosphonates [DETA Phosphonate]	2
